Assay results from patent US20250313533A1, “QUINOLINE CARBOXYLIC ACID ESTER COMPOUND AND PREPARATION METHOD AND USE THEREOF” (priority 2019, published 2025).

Experiments:
[1] = test system: pathogenic bacteria causing fire blight in pears; test: In vitro bactericidal activity, fire blight in pears; format: cell-based, erwinia; settings: Erwinia, read-out: inhibitory rate; for inhibition at 1 ppm: dosage 1 ppm; for inhibition at 5 ppm: dosage 5 ppm
[2] = test system: indoor potted cucumber seedlings; test: Effect of improving growth and development of crops; format: in vivo; parameters: Rate of growth rate increase (%): concentration or dose not given beside the values; settings: versus blank control; for Rate of chlorophyll content increase (%) / Rate of leaf area increase (%): 14 days after application; for Rate of growth rate increase (%): plant height 14 days after application; for Rate of leaf area increase (%): second leaf
Method in brief: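 SPAD chlorophyll, plant height and second-leaf dimensions measured at application and 14 d later; leaf area from length (base to tip) and width (upper shoulder).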

[3] = test system: pathogenic bacteria causing bacterial wilt in cassava; test: organism not typed; format: cell-based; settings: read-out: inhibitory rate
[4] = test system: pathogenic bacteria causing black rot in Chinese cabbages; test: In vitro bactericidal activity, black rot in Chinese cabbages; format: cell-based, xanthomonas; settings: Xanthomonas, read-out: inhibitory rate; for inhibition at 1 ppm: dosage 1 ppm; for inhibition at 5 ppm: dosage 5 ppm
[5] = test system: bacterial blight in rice; test: whole plant or invertebrate; settings: Oryza sativa, read-out: efficacy against bacterial blight in rice
[6] = test system: pathogenic bacteria causing bacterial angular leaf spot in cucumbers; test: In vitro bactericidal activity, bacterial angular leaf spot in cucumbers; format: cell-based, pseudomonas; settings: read-out: inhibitory rate; for inhibition at 1 ppm: dosage 1 ppm; for inhibition at 5 ppm: dosage 5 ppm
[7] = test system: cucumber seedlings; test: Safety for plant growth after application; format: in vivo; settings: dosage 200 ppm
Method in brief: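 Indoor potted cucumber seedlings were treated with the compounds, and crop safety was judged from effects on plant height growth rate, chlorophyll content and leaf area.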

[8] = test system: pathogenic bacteria causing bacterial wilt in tobacco; test: whole plant or invertebrate; format: cell-based, ralstonia; settings: read-out: inhibitory rate
[9] = test system: fruit blotch in watermelons; test: whole plant or invertebrate; settings: read-out: efficacy against fruit blotch in watermelons
[10] = test system: pathogenic bacteria causing bacterial blight in rice; test: whole plant or invertebrate; format: cell-based, xanthomonas; settings: read-out: inhibitory rate
[11] = test system: bacterial wilt in tobacco; test: whole plant or invertebrate; settings: Nicotiana tabacum, read-out: efficacy against bacterial wilt in tobacco
[12] = test system: pathogenic bacteria causing stem rot in sweet potatoes; test: In vitro bactericidal activity, stem rot in sweet potatoes; format: cell-based, dikia; settings: read-out: inhibitory rate; for inhibition at 1 ppm: dosage 1 ppm; for inhibition at 5 ppm: dosage 5 ppm
[13] = test system: pathogenic bacteria causing black shank in potatoes; test: In vitro bactericidal activity, black shank in potatoes; format: cell-based; settings: read-out: inhibitory rate; for inhibition at 1 ppm: dosage 1 ppm; for inhibition at 5 ppm: dosage 5 ppm
[14] = test system: black shank in potatoes; test: Living crops in vivo protective activity, potatoes (root irrigation); settings: Solanum tuberosum, read-out: efficacy against black shank in potatoes; for pest or weed control at 5 ppm: dosage 5 ppm; for pest or weed control at 10 ppm: dosage 10 ppm
Description: Root irrigation was carried out on the potatoes for tests according to the designed concentration of the agents. The dosage for each plant was 200 mL and was kept consistent (also for the control). The black shank bacteria were inoculated on the second day after the application. The results were investigated according to the disease condition.

[15] = test system: soft rot in Chinese cabbages; test: whole plant or invertebrate; settings: 48 h, read-out: efficacy against soft rot in Chinese cabbages
[16] = test system: stem rot in sweet potatoes; test: whole plant or invertebrate; settings: read-out: efficacy against stem rot in sweet potatoes
[17] = test system: pathogenic bacteria causing fruit blotch in watermelons; test: In vitro bactericidal activity, fruit blotch in watermelons; format: cell-based, acidovorax; settings: read-out: inhibitory rate; for inhibition at 1 ppm: dosage 1 ppm; for inhibition at 5 ppm: dosage 5 ppm

Row | SMILES | inhibition at 1 ppm [1] [%] | inhibition at 5 ppm [1] [%] | Rate of chlorophyll content increase (%) [2] [%] | Rate of growth rate increase (%) [2] [%] | Rate of leaf area increase (%) [2] [%] | inhibition at 1 ppm [3] [%] | inhibition at 5 ppm [3] [%] | inhibition at 1 ppm [4] [%] | inhibition at 5 ppm [4] [%] | pest or weed control at 5 ppm [5] [%] | pest or weed control at 10 ppm [5] [%] | inhibition at 1 ppm [6] [%] | inhibition at 5 ppm [6] [%] | safety for plant growth (discoloration, necrosis, wilt, malformation) [7] | inhibition at 1 ppm [8] [%] | inhibition at 5 ppm [8] [%] | pest or weed control at 5 ppm [9] [%] | pest or weed control at 10 ppm [9] [%] | inhibition at 1 ppm [10] [%] | inhibition at 5 ppm [10] [%] | other results
1 | CCOc1ccc2c(=O)c(C(=O)OCCOC)cn(C3CC3)c2c1 [Compound 342] | ≥ 90 | ≥ 90 | 9 | 9 | 11 | ≥ 90 | ≥ 90 | ≥ 90 | ≥ 90 | ≥ 90 | ≥ 90 | ≥ 90 | ≥ 90 | safe for plant growth | ≥ 90 | ≥ 90 | ≥ 90 | ≥ 90 | ≥ 90 | ≥ 90 | pest or weed control at 5 ppm [11]: ≥ 90%; pest or weed control at 10 ppm [11]: ≥ 90%; inhibition at 1 ppm [12]: ≥ 90%; inhibition at 5 ppm [12]: ≥ 90%; inhibition at 1 ppm [13]: ≥ 90%; inhibition at 5 ppm [13]: ≥ 90%; pest or weed control at 5 ppm [14]: ≥ 90%; pest or weed control at 10 ppm [14]: ≥ 90%; pest or weed control at 5 ppm [15]: ≥ 90%; pest or weed control at 10 ppm [15]: ≥ 90%; pest or weed control at 5 ppm [16]: ≥ 90%; pest or weed control at 10 ppm [16]: ≥ 90%; inhibition at 1 ppm [17]: ≥ 90%; inhibition at 5 ppm [17]: ≥ 90%
2 | COCCOC(=O)c1cn(C2CC2)c2cc(OCC(F)(F)F)ccc2c1=O [Compound 364] | ≥ 80 | ≥ 90 | 12 | 7 | 9 | ≥ 80 | ≥ 90 | ≥ 80 | ≥ 90 | ≥ 80 | ≥ 90 | ≥ 80 | ≥ 90 | safe for plant growth | ≥ 80 | ≥ 90 | ≥ 90 | ≥ 90 | ≥ 80 | ≥ 90 | pest or weed control at 5 ppm [11]: ≥ 90%; pest or weed control at 10 ppm [11]: ≥ 90%; inhibition at 1 ppm [12]: ≥ 80%; inhibition at 5 ppm [12]: ≥ 90%; inhibition at 1 ppm [13]: ≥ 80%; inhibition at 5 ppm [13]: ≥ 90%; pest or weed control at 5 ppm [14]: ≥ 80%; pest or weed control at 10 ppm [14]: ≥ 90%; pest or weed control at 5 ppm [15]: ≥ 80%; pest or weed control at 10 ppm [15]: ≥ 90%; pest or weed control at 5 ppm [16]: ≥ 90%; pest or weed control at 10 ppm [16]: ≥ 90%; inhibition at 1 ppm [17]: ≥ 80%; inhibition at 5 ppm [17]: ≥ 90%
3 | CCSc1cc2c(cc1F)c(=O)c(C(=O)OCCO)cn2C1CC1 [Compound 372] | ≥ 90 | ≥ 90 | 11 | 8 | 10 | ≥ 90 | ≥ 90 | ≥ 90 | ≥ 90 | ≥ 90 | ≥ 90 | ≥ 90 | ≥ 90 | safe for plant growth | ≥ 90 | ≥ 90 | ≥ 90 | ≥ 90 | ≥ 90 | ≥ 90 | pest or weed control at 5 ppm [11]: ≥ 90%; pest or weed control at 10 ppm [11]: ≥ 90%; inhibition at 1 ppm [12]: ≥ 90%; inhibition at 5 ppm [12]: ≥ 90%; inhibition at 1 ppm [13]: ≥ 90%; inhibition at 5 ppm [13]: ≥ 90%; pest or weed control at 5 ppm [14]: ≥ 90%; pest or weed control at 10 ppm [14]: ≥ 90%; pest or weed control at 5 ppm [15]: ≥ 90%; pest or weed control at 10 ppm [15]: ≥ 90%; pest or weed control at 5 ppm [16]: ≥ 90%; pest or weed control at 10 ppm [16]: ≥ 90%; inhibition at 1 ppm [17]: ≥ 90%; inhibition at 5 ppm [17]: ≥ 90%
4 | CCSc1cc2c(cc1F)c(=O)c(C(=O)OCCOC)cn2C1CC1 [Compound 382] | ≥ 90 | ≥ 90 | 13 | 10 | 10 | ≥ 90 | ≥ 90 | ≥ 90 | ≥ 90 | ≥ 90 | ≥ 90 | ≥ 90 | ≥ 90 | safe for plant growth | ≥ 90 | ≥ 90 | ≥ 90 | ≥ 90 | ≥ 90 | ≥ 90 | pest or weed control at 5 ppm [11]: ≥ 90%; pest or weed control at 10 ppm [11]: ≥ 90%; inhibition at 1 ppm [12]: ≥ 90%; inhibition at 5 ppm [12]: ≥ 90%; inhibition at 1 ppm [13]: ≥ 90%; inhibition at 5 ppm [13]: ≥ 90%; pest or weed control at 5 ppm [14]: ≥ 90%; pest or weed control at 10 ppm [14]: ≥ 90%; pest or weed control at 5 ppm [15]: ≥ 90%; pest or weed control at 10 ppm [15]: ≥ 90%; pest or weed control at 5 ppm [16]: ≥ 90%; pest or weed control at 10 ppm [16]: ≥ 90%; inhibition at 1 ppm [17]: ≥ 90%; inhibition at 5 ppm [17]: ≥ 90%
5 | COCCOC(=O)c1cn(C2CC2)c2cc(SCC(F)(F)F)c(F)cc2c1=O [Compound 390] | ≥ 90 | ≥ 90 | 17 | 13 | 15 | ≥ 90 | ≥ 90 | ≥ 90 | ≥ 90 | ≥ 90 | ≥ 90 | ≥ 90 | ≥ 90 | safe for plant growth | ≥ 90 | ≥ 90 | ≥ 90 | ≥ 90 | ≥ 90 | ≥ 90 | pest or weed control at 5 ppm [11]: ≥ 90%; pest or weed control at 10 ppm [11]: ≥ 90%; inhibition at 1 ppm [12]: ≥ 90%; inhibition at 5 ppm [12]: ≥ 90%; inhibition at 1 ppm [13]: ≥ 90%; inhibition at 5 ppm [13]: ≥ 90%; pest or weed control at 5 ppm [14]: ≥ 90%; pest or weed control at 10 ppm [14]: ≥ 90%; pest or weed control at 5 ppm [15]: ≥ 90%; pest or weed control at 10 ppm [15]: ≥ 90%; pest or weed control at 5 ppm [16]: ≥ 90%; pest or weed control at 10 ppm [16]: ≥ 90%; inhibition at 1 ppm [17]: ≥ 90%; inhibition at 5 ppm [17]: ≥ 90%
6 | CNc1cc2c(cc1F)c(=O)c(C(=O)OCCO)cn2C1CC1 [Compound 400] | ≥ 90 | ≥ 90 | 17 | 13 | 18 | ≥ 90 | ≥ 90 | ≥ 90 | ≥ 90 | ≥ 90 | ≥ 90 | ≥ 90 | ≥ 90 | safe for plant growth | ≥ 90 | ≥ 90 | ≥ 90 | ≥ 90 | ≥ 90 | ≥ 90 | pest or weed control at 5 ppm [11]: ≥ 90%; pest or weed control at 10 ppm [11]: ≥ 90%; inhibition at 1 ppm [12]: ≥ 90%; inhibition at 5 ppm [12]: ≥ 90%; inhibition at 1 ppm [13]: ≥ 90%; inhibition at 5 ppm [13]: ≥ 90%; pest or weed control at 5 ppm [14]: ≥ 90%; pest or weed control at 10 ppm [14]: ≥ 90%; pest or weed control at 5 ppm [15]: ≥ 90%; pest or weed control at 10 ppm [15]: ≥ 90%; pest or weed control at 5 ppm [16]: ≥ 90%; pest or weed control at 10 ppm [16]: ≥ 90%; inhibition at 1 ppm [17]: ≥ 90%; inhibition at 5 ppm [17]: ≥ 90%
